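Grown in 96-well plates, cells were treated for 48 hours with each compound at five concentrations. Insufficient inhibition: endpoint recorded as highest concentration tested. Here, GI50 denotes the concentration required for 50% inhibition of growth. The concentration for full growth arrest is given as TGI.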
Columns and labels:
Test in all cases: inhibition of tumour cell growth, NCI panel, 48 h
786-0 renal = test system: 786-0 renal
A498 renal = test system: A498 renal
A549 NSCLC = test system: A549 NSCLC
CAKI-1 renal = test system: CAKI-1 renal
DU-145 prostate = test system: DU-145 prostate
HCT-15 colon = test system: HCT-15 colon
HL-60(TB) leukemia = test system: HL-60(TB) leukemia
OVCAR-5 ovarian = test system: OVCAR-5 ovarian
SW-620 colon = test system: SW-620 colon
TK-10 renal = test system: TK-10 renal
PC-3 prostate = test system: PC-3 prostate

SMILES	TGI (786-0 renal) [µM]	TGI (A498 renal) [µM]	TGI (A549 NSCLC) [µM]	TGI (CAKI-1 renal) [µM]	TGI (DU-145 prostate) [µM]	TGI (HCT-15 colon) [µM]	TGI (HL-60(TB) leukemia) [µM]	TGI (OVCAR-5 ovarian) [µM]	TGI (SW-620 colon) [µM]	TGI (TK-10 renal) [µM]	GI50 (A498 renal) [µM]	GI50 (CAKI-1 renal) [µM]	GI50 (DU-145 prostate) [µM]	GI50 (OVCAR-5 ovarian) [µM]	GI50 (SW-620 colon) [µM]	TGI (PC-3 prostate) [µM]	GI50 (A549 NSCLC) [µM]	GI50 (HCT-15 colon) [µM]	GI50 (HL-60(TB) leukemia) [µM]	GI50 (TK-10 renal) [µM]
CCc1n[nH]c(=O)n1/N=C/c1ccccc1Cl	> 100	> 100	> 100	> 100	> 100	> 100	> 100	> 100	> 100	> 100	–	–	–	–	–	–	–	–	–	–
NCCCNc1nc2ccccc2c2c(=O)c3cc(C(F)(F)F)ccc3sc12	–	3.23	–	2.84	3.26	–	–	3.15	3.18	–	1.73	1.51	1.82	1.73	1.69	–	–	–	–	–
CCNC1(c2cccc(C)c2)OC(C)(C)c2cccc3cccc1c23 (stereo not given)	37.6	32.2	30.9	48.1	36.1	42.9	19.7	38.1	36.6	38.3	–	–	–	–	–	–	–	–	–	–
CCCN(CCCC(NC(C)=O)C(=O)NCc1ccccc1)C(=O)NC (stereo not given)	> 100	> 100	> 100	> 100	–	> 100	–	> 100	> 100	> 100	–	–	–	–	–	–	–	–	–	–
COc1ccc(C2SCC(=O)N2c2ccc(-n3c(-c4ccccc4)nc4ccccc4c3=O)cc2)cc1OC (stereo not given)	> 100	> 100	> 100	> 100	–	> 100	> 100	> 100	> 100	> 100	–	–	–	–	–	> 100	–	–	–	–
Cn1c(=O)cc(NCc2ccc(Cl)cc2)[nH]c1=O	> 100	> 100	> 100	> 100	–	> 100	–	> 100	> 100	> 100	–	–	–	–	–	> 100	–	–	–	–
CC1CC[C@@]2(OC1)OC1C[C@H]3[C@@H]4C/C(=N\N(C)C)[C@@]5(O)CC(O)CC[C@]5(C)[C@H]4CC[C@]3(C)C1[C@@H]2C (stereo not given in full)	> 100	> 100	> 100	–	> 100	> 100	54.3	> 100	> 100	> 100	–	–	–	–	–	> 100	–	–	–	–
CC(OC(=O)NCn1cc(-c2ccccc2)nn1)c1ccccc1 (stereo not given)	> 100	–	> 100	> 100	> 100	> 100	75	> 100	> 100	> 100	–	–	–	–	–	5.23	–	–	–	–
COc1nc(SC)nc2c1cnn2C1OC(C(O)CO)C(OC)C1O (stereo not given)	–	> 100	> 100	–	–	> 100	> 100	> 100	> 100	–	–	–	–	–	–	–	–	–	–	–
N#Cc1c(-c2ccc([N+](=O)[O-])cc2)cc(-c2ccc(Nc3ccnc4cc(C(F)(F)F)ccc34)cc2)nc1N	15.6	> 71.3	26.8	41.3	> 43.3	23.6	–	> 73.8	59.2	> 69.8	–	–	–	–	–	56.9	–	–	–	–
COc1ccc(N=C(C)c2ccncc2)cc1	> 100	> 100	> 100	> 100	> 100	> 100	–	> 100	> 100	> 100	–	–	–	–	–	> 100	–	–	–	–
Nc1c(-c2nc3ccccc3s2)c2ccc([N+](=O)[O-])cc2c(=O)n1-c1cccc(C(=O)O)c1	> 100	–	> 100	80.3	64.7	> 100	37.7	–	> 100	52.3	–	–	–	–	–	> 100	–	–	–	–
CC(=O)O/N=C/c1ncccc1OC(C)=O	> 100	> 100	> 100	> 100	–	> 100	> 100	> 100	> 100	> 100	–	–	–	–	–	–	–	–	–	–
CCOC(=O)c1c(C)c2c(n1C)CCc1cn[nH]c1-2	–	> 100	> 100	> 100	–	> 100	> 100	> 100	> 100	–	–	–	–	–	–	–	–	–	–	–
O=c1cc(N2CCOCC2)[nH]c(=O)n1-c1cccc(C(F)(F)F)c1	> 100	> 100	> 100	> 100	> 100	> 100	> 100	> 100	> 100	> 100	–	–	–	–	–	–	–	–	–	–
CCCc1c(OC)c(=O)c2c(OC)cc(OC)c3c4c(OC)cc(OC)c5c(=O)c(OC)c(CCC)c(c1c23)c54	26.7	37.1	43.7	27.7	24.6	27.9	10.4	29	33.7	36.8	–	–	–	–	–	–	–	–	–	–
Clc1ccc(SCCSCCCCCCCCCCSCCSc2ccc(Cl)cc2)cc1	> 100	> 100	> 100	> 100	–	> 100	> 100	> 100	> 100	> 100	–	–	–	–	–	–	–	–	–	–
NC(=O)N1N=C2c3ccccc3CC[C@@H]2C1c1ccccc1 (stereo not given in full)	> 100	> 100	> 100	> 100	–	> 100	> 100	> 100	> 100	> 100	–	–	–	–	–	–	–	–	–	–
CCCn1c(SCC)c2ccccc2c1-c1nc(F)nc(F)n1	> 100	> 100	> 100	> 100	–	> 100	> 100	> 100	> 100	> 100	–	–	–	–	–	–	–	–	–	–
COC(=O)C(CCCC1(c2ccccc2)OCCO1)C(C)=O (stereo not given)	> 100	> 100	> 100	–	–	> 100	> 100	> 100	> 100	> 100	–	–	–	–	–	–	–	–	–	–
N#CCCN(CCC#N)c1ccc(C(N=Nc2ccccc2)=Nc2ccccc2)cc1	> 100	> 100	> 100	> 100	> 100	> 100	–	> 100	> 100	> 100	–	–	–	–	–	> 100	–	–	–	–
O=c1[nH]c(Nc2cccc(C(F)(F)F)c2)nc2nc[nH]c12	> 100	–	> 100	> 100	> 100	> 100	> 100	> 100	> 100	> 100	–	–	–	–	–	> 100	–	–	–	–

SMILES	TGI (786-0 renal) [µM]	TGI (A498 renal) [µM]	TGI (A549 NSCLC) [µM]	TGI (CAKI-1 renal) [µM]	TGI (DU-145 prostate) [µM]	TGI (HCT-15 colon) [µM]	TGI (HL-60(TB) leukemia) [µM]	TGI (OVCAR-5 ovarian) [µM]	TGI (SW-620 colon) [µM]	TGI (TK-10 renal) [µM]	GI50 (A498 renal) [µM]	GI50 (CAKI-1 renal) [µM]	GI50 (DU-145 prostate) [µM]	GI50 (OVCAR-5 ovarian) [µM]	GI50 (SW-620 colon) [µM]	TGI (PC-3 prostate) [µM]	GI50 (A549 NSCLC) [µM]	GI50 (HCT-15 colon) [µM]	GI50 (HL-60(TB) leukemia) [µM]	GI50 (TK-10 renal) [µM]
C[C@H](Nc1c(O)c2c(c(O)c1Cl)C(=O)C=CC2=O)C(=O)Nc1ccc([N+](=O)[O-])cc1	3.23	4.8	3.64	> 10	3.22	7.55	–	3.51	6.49	3.39	–	–	–	–	–	8.89	–	–	–	–
OC12COc3ccccc3C1Oc1ccccc1C2 (stereo not given)	> 100	> 100	> 100	> 100	> 100	> 100	–	> 100	> 100	> 100	–	–	–	–	–	> 100	–	–	–	–
O=c1[nH]c(=O)n(C2CC(O)C(CO)O2)cc1OCCCc1ccccc1 (stereo not given)	> 100	–	> 100	> 100	> 100	> 100	> 100	> 100	–	> 100	–	–	–	–	–	> 100	–	–	–	–
COc1cc2c(c(C)c1O)[C@H]1COc3ccccc3[C@H]1O2	42.6	> 100	81.6	30	–	18.5	12.7	> 100	–	80.8	–	–	–	–	–	–	–	–	–	–
COCC1CCCN1c1ccc(/C=C(/C#N)C(N)=S)cc1 (stereo not given)	–	> 100	> 100	> 100	> 100	> 100	> 100	> 100	> 100	> 100	> 100	> 100	> 100	> 100	79.4	–	> 100	> 100	> 100	> 100
CN(NC(=O)CCCl)C1=NCCN1	> 100	> 100	> 100	–	> 100	> 100	> 100	> 100	> 100	> 100	–	–	–	–	–	> 100	–	–	–	–
Cc1cccc2c1Oc1cc(Cl)ccc1C2NC(=O)CCN1CCN(CCO)CC1 (stereo not given)	26.5	–	23.7	–	61.2	34.1	39	40.9	32.2	–	–	–	–	–	–	28.1	–	–	–	–
COC(=O)C1=C(C(=O)OC)C2(OC(C)=O)c3ccccc3-c3ccccc3C12 (stereo not given)	8.26	32	31.9	6.08	–	10.3	–	27.2	3.12	8.08	–	–	–	–	–	–	–	–	–	–
CSC(C1c2ccccc2N(C)C2=NC(=O)N(C)C(=O)C21Cl)S(=O)(=O)c1ccc(C)cc1 (stereo not given)	33.2	> 100	> 100	48	–	> 100	39.7	> 100	71.1	> 100	–	–	–	–	–	–	–	–	–	–
CC1(C)CC[C@]2(C)CC=C3[C@]4(C)CC[C@H]5C(C)(C)C(=O)CC[C@]5(C)[C@H]4CC[C@@]3(C)[C@H]2C1	> 100	> 100	> 100	> 100	> 100	> 100	–	> 100	> 100	> 100	–	–	–	–	–	> 100	–	–	–	–
COC(OC)c1cccc2c1C(=O)CCC1(O)c3ccccc3C1C2 (stereo not given)	> 100	–	> 100	–	–	> 100	> 100	> 100	> 100	> 100	–	–	–	–	–	–	–	–	–	–
Cc1c(CCOC=O)c(=O)[nH]c2nncn12	> 100	> 100	> 100	–	> 100	> 100	> 100	> 100	> 100	> 100	–	–	–	–	–	> 100	–	–	–	–
COc1cc(C2C(Cl)C(=O)N2NC(=O)c2ccccc2O)ccc1O (stereo not given)	–	> 100	> 100	–	–	> 100	> 100	–	–	> 100	–	–	–	–	–	–	–	–	–	–
CCCCC(=O)Nc1ccc2cc(C(=O)OC)c(ON3C(=O)c4ccccc4C3=O)nc2n1	36.1	> 100	> 100	52.4	–	> 100	–	98.3	> 100	46.2	–	–	–	–	–	> 100	–	–	–	–
COC1=CC(=O)[C@H]2[C@H](C)C(c3ccccc3)[C@@]2(C)C1=O (stereo not given in full)	> 100	> 100	> 100	> 100	–	> 100	> 100	> 100	> 100	> 100	–	–	–	–	–	–	–	–	–	–
Clc1ccc(Oc2ccc(N=Cc3ccc(Cl)cc3Cl)cc2Cl)cc1	63.5	–	> 100	> 100	> 100	> 100	57.6	> 100	> 100	> 100	–	–	–	–	–	> 100	–	–	–	–
O=C1CCC[C@]2(CCC[C@@H](O)C2)N1	> 100	–	> 100	> 100	> 100	> 100	> 100	> 100	–	> 100	–	–	–	–	–	> 100	–	–	–	–
Nc1nc(SCCNC(=O)CCc2ccc(O)cc2)nc2c1ncn2C1OC(CO)C(O)C1O (stereo not given)	> 203	> 203	> 203	> 203	–	> 203	> 203	> 203	> 203	> 203	–	–	–	–	–	–	–	–	–	–
Cc1cn(C2CCC(/C=N\O)O2)c(=O)[nH]c1=O (stereo not given)	> 100	> 100	> 100	> 100	> 100	> 100	–	> 100	> 100	–	–	–	–	–	–	> 100	–	–	–	–
CC1(C)CC(=O)C2=C(C1)c1c(ccc3ccccc13)NC2c1cn(Cc2ccc(Cl)cc2)c2ccccc12 (stereo not given)	> 100	–	> 100	> 100	> 100	> 100	> 100	> 100	> 100	> 100	–	–	–	–	–	> 100	–	–	–	–
CC1(c2nc3cc(Cl)c(Cl)cc3[nH]2)CCC(CO)C(C)(C)O1 (stereo not given)	> 100	–	> 100	> 100	> 100	> 100	36.7	> 100	> 100	> 100	–	–	–	–	–	97.3	–	–	–	–
COc1cc(C2c3cc4c(cc3OC(Nc3ccc(C(=O)O)cc3)C2C)OCO4)cc(OC)c1OC (stereo not given)	> 100	> 100	> 47.5	0.761	–	> 100	0.541	> 100	> 100	> 100	–	–	–	–	–	> 100	–	–	–	–

— PubChem BioAssay (NCI)
